This note sets out measurements from patent publication US20260207788A1, “HEAVY ISOTOPE 3-BP MOLECULES, COMPOSITIONS, AND TREATMENTS” (KODISCOVERY, LLC, priority 2022, published 2026).

The viability is a read-out of living cells in per cent, often relative to untreated cells.

What all share (assay type): cell-based
Data set [1] has as its system Panc-2 cells. In words: Imaging of morphology of treated panc-2 cells.
Data set [2] has as its system Panc-2 cells. In words: MTS assay, percent viability of Panc-2 cells. As to conditions: for cell death: time not given; for viability at 40 µM / viability at 100 µM / viability at 80 µM: read-out: percent viability of Panc-2 cells. As for the experimental part: (§1) In current study we have tested anti-tumor potency of 7, 3-BP analogues employing MTS and ATP assay. The percent viability of Pan-2 cells was determined in presence of graded concentration of 3BP analogues 0, 1, 2, 3, 4, 5, 6 & 7.
Panc2 cells were seeded in either 6 well plate (6-6.5×10^4 cells/well/2 ml media) or in 12 well plate (3-3.5×10^4/1 ml media) or in 96 well plate ([…] /well/100 ul) in RPMI 1640 with 10% FBS, 0.5% antibiotic media for about 12 hours, in CO2 cell culture incubator at 37 °C. The cells were treated initially with KAT 0, 5, 20, 40, 80 and 100 uM for 1, 2, 4, 8 hours and latter in separate experiments with 40 and 60 µM for 15, 30, 1 hour. For each treatment KAT was added in a volume maximum 10 ul. For control same amount of KAT buffer was used. At the end of each time point treatment MTS reagent (Cell titer 96 aqueous one solution, Promega, USA) was added to each well according to the manufacturer instruction and incubated for approx. 2 hours. After that 100 ul from each well was transferred to 96 well plate (quartiles for each treatment) and measured absorbance at 490 nm with BIOTEK synergy HT. For 96 well plate reagent was added directly to each well, incubated for 2 hours and measured absorbance at 490 nm.

Data set [3] has as its system Panc-2 cells. The experiment in a line: ATP assay (cell titer Glo2.0), ATP generation in panc-2 cells. Particulars: 40 μM; for cells killed in terms of ATP generation: time not given. On the procedure: as §1
For ATP assay panc2 cells (2×10^3/in 100 ul media) were seeded in each well of 96 well luminescence plate (Corning, USA) for 12 hours in media described above. Cells were treated with KAT 0, 5, 20, 40, 80, 100 for 1, 2, 4, 8 hours. In separate experiments, cells were treated with KAT 40, 60 μM for 15, 30 & 60 min. At the end of each treatment, 100 ul ATP assay reagent cell titer Glo2.0 (Promega, USA) was added in each well, shacked on a rotating shaker for 2 mins, incubated at room temperature for 10 mins in dark and luminescence was measured with BIOTEK synergy HT.
On the technique in general: ATP-based viability assays read luminescence as a measure of living cells.

In data set [4] the test system is Panc-2 cells. In words: MTS assay, percent viability of Panc-2 cells. As to conditions: 40 μM; for cell death (cells killed) in terms of MTT: after 8 hours; for cells killed in terms of MTT: time not given.

Like-named read-outs stand apart in the source and are kept apart here.

Consider `O=C(O)C(=O)CBr` [Molecule 0, 3-Bromopyruvate, reference compound], for which the cell morphology result in the data set on Panc-2 cells [1] (40, 80 and 100 μM) was “change in morphology”. Also, the “cell death in Panc-2 cells” value in the data set with Panc-2 cells [2] (40 μM, 1 hour treatment) came to 58%. Besides, the “percent viability of Panc-2 cells” value in the data set on Panc-2 cells [2] (40 μM, 8 hours treatment) is reported as 24%. Further, the cells killed result with Panc-2 cells [2] (80 μM, 1 hour treatment) is recorded as “about 97%”. Besides, the “cell death (cells killed)” value in the data set on Panc-2 cells [2] (80 μM, 8 hours treatment) came to 100%. Also, the ATP generation in the data set with Panc-2 cells [3] (1 hour treatment) turned out to be 80%; with Panc-2 cells [3] (after 8 hours), 35%.

As for `O=C(CBr)[13C](=O)O` [Molecule 1], in the data set on Panc-2 cells [1] (40 μM, after 8 hours), the cell morphology result is “rounding and membrane blabbing”. Besides, the cells killed in the data set with Panc-2 cells [2] (80 μM, 1 hour treatment) is listed as 79%. Also, the “cell death (cells killed)” value with Panc-2 cells [2] (80 μM, 8 hours treatment) turned out to be 96%. Also, the cell death in the data set with Panc-2 cells [2] (80 and 100 uM) was 95-97%. Further, the values for the viability at 40 µM in the data set with Panc-2 cells [2] (1 h) and in the data set with Panc-2 cells [2] (8 h) were 54% and 30%, respectively. Also, in the data set with Panc-2 cells [4], the “cell death (cells killed) in terms of MTT” value (“cell death … of MTT” for short) is listed as 70%. In addition, the values for the ATP generation in the data set on Panc-2 cells [3] (1 hour treatment) and in the data set with Panc-2 cells [3] (after 8 hours) were 57% and 7%, respectively. In addition, in the data set on Panc-2 cells [3] (after 8 hours), the “cell death (cells killed) in terms of ATP generation” value (“cell death … of ATP generation” below) amounted to 93%.

For `O=C(O)[13C](=O)CBr` [Molecule 2], the cell morphology entry in the data set on Panc-2 cells [1] (80 μM, time not given) is “rounding and membrane blabbing”. Also, the cells killed entry in the data set with Panc-2 cells [2] (80 μM, 4 hour treatment) is “about 99%”. Besides, the viability at 40 µM in the data set on Panc-2 cells [2] (1 h) is about 52%; with Panc-2 cells [2] (8 h), about 60%. Besides, the viability at 100 µM with Panc-2 cells [2] was about 0%. Further, in the data set with Panc-2 cells [4], the “cells killed in terms of MTT” value amounted to 40%. Further, the ATP generation is on record as 83% in the data set on Panc-2 cells [3] (1 hour treatment) and 68% in the data set on Panc-2 cells [3] (after 8 hours). In addition, the “cells killed in terms of ATP generation” value with Panc-2 cells [3] amounted to 32%.

For `O=C(O)C(=O)[13CH2]Br` [Molecule 3], the cell morphology result in the data set with Panc-2 cells [1] (40 μM, after 8 hours) was “rounding and membrane blabbing”. Moreover, the cells killed with Panc-2 cells [2] (80 μM, 1 hour treatment) was about 88%. The viability at 40 µM is about 62% with Panc-2 cells [2] (1 h) and about 46% in the data set on Panc-2 cells [2] (8 h). The viability at 100 µM in the data set on Panc-2 cells [2] (1 h) is about 5%. In addition, the “cells killed in terms of MTT” value in the data set with Panc-2 cells [4] is listed as “about 54%”. Also, the ATP generation entry is listed as “about 80%” in the data set on Panc-2 cells [3] (1 hour treatment) and “about 66%” with Panc-2 cells [3] (after 8 hours). In addition, in the data set with Panc-2 cells [3], the “cells killed in terms of ATP generation” value was “about 34%”.

As for `[2H]C([2H])(Br)C(=O)C(=O)O` [Molecule 4], in the data set on Panc-2 cells [1] (80 μM, after 2 hours), the cell morphology result is “rounding and membrane blabbing”. For the same compound, the cells killed entry in the data set with Panc-2 cells [2] (80 μM, 1 hour treatment) is given as “about 99%”. In the data set on Panc-2 cells [2] (100 μM), the cell death result is “about 100%”. In addition, the viability at 40 µM in the data set with Panc-2 cells [2] (1 h) is about 58%; in the data set on Panc-2 cells [2] (8 h), about 60%. For the same compound, the “cells killed in terms of MTT” value with Panc-2 cells [4] is 32-40%. Moreover, the ATP generation with Panc-2 cells [3] (1 hour treatment) was 91%; in the data set on Panc-2 cells [3] (after 8 hours), “about 76%”. Also, the “cells killed in terms of ATP generation” value in the data set with Panc-2 cells [3] was 32-40%.

In the case of `OC(=[18O])C(=[18O])CBr` [Molecule 5], in the data set on Panc-2 cells [1] (40 μM, after 8 hours), the cell morphology entry is “rounding and membrane blabbing”. Further, the viability at 40 µM was about 48% in the data set with Panc-2 cells [2] (1 h) and about 19% with Panc-2 cells [2] (8 h). In the data set with Panc-2 cells [2] (1 h), the viability at 80 µM is about 6%. In addition, in the data set with Panc-2 cells [2], the viability at 100 µM was about 2%. Also, the “cells killed in terms of MTT” value with Panc-2 cells [4] is “about 81%”. In addition, the ATP generation entry was “about 69%” in the data set with Panc-2 cells [3] (1 hour treatment) and “about 26%” in the data set with Panc-2 cells [3] (after 8 hours). In addition, in the data set on Panc-2 cells [3], the “cells killed in terms of ATP generation” value is “about 74%”.

With `O=[13C](O)[13C](=O)[13CH2]Br` [Molecule 6], in the data set with Panc-2 cells [1] (40 μM, after 8 hours), the cell morphology entry is “rounding and membrane blabbing”. Further, in the data set on Panc-2 cells [2] (1 h), the viability at 40 µM was about 66%, the viability at 80 µM was about 32% and the viability at 100 µM is about 28%. Further, the viability at 40 µM in the data set with Panc-2 cells [2] (8 h) is about 57%. Further, the “cell death … of MTT” value in the data set with Panc-2 cells [4] is on record as “about 43%”. Further, the ATP generation in the data set with Panc-2 cells [3] (1 hour treatment) is reported as 73%. Moreover, in the data set with Panc-2 cells [3] (after 8 hours), the ATP generation is given as 26% and the “cell death … of ATP generation” value is on record as “about 74%”.

On to `O=C(O)C(=O)CBr` [Molecule 7, 3-Bromopyruvate, reference compound], for which, in the data set on Panc-2 cells [1] (40 μM, after 8 hours), the cell morphology entry is “rounding and membrane blabbing”. Also, the “percent viability of Panc-2 cells” value in the data set on Panc-2 cells [2] (40 μM, 1 hour treatment) was “about 67%”; in the data set with Panc-2 cells [2] (40 μM, 8 hours treatment) it was “about 46%”; in the data set with Panc-2 cells [2] (80 μM, 1 hour treatment), “about 10%”; in the data set on Panc-2 cells [2] (100 μM, 1 hour treatment) it was “about 4%”. Besides, the “cell death … of MTT” value in the data set on Panc-2 cells [4] was “about 43%”. The ATP generation in the data set on Panc-2 cells [3] (1 hour treatment) worked out at 79%; in the data set with Panc-2 cells [3] (after 8 hours), 64%. The “cell death … of ATP generation” value with Panc-2 cells [3] (after 8 hours) is “about 74%”.
